Measured values: US7776859B2, “Hexahydroimidazopyrazin-3-one compounds useful as modulators of androgen receptor function” (Bristol-Myers Squibb Company, priority 2005, dated 2010)

Key:
AR = molecular target: T1, AR (Rattus norvegicus, UniProt P15207)
T1 sequence (P15207 1-902): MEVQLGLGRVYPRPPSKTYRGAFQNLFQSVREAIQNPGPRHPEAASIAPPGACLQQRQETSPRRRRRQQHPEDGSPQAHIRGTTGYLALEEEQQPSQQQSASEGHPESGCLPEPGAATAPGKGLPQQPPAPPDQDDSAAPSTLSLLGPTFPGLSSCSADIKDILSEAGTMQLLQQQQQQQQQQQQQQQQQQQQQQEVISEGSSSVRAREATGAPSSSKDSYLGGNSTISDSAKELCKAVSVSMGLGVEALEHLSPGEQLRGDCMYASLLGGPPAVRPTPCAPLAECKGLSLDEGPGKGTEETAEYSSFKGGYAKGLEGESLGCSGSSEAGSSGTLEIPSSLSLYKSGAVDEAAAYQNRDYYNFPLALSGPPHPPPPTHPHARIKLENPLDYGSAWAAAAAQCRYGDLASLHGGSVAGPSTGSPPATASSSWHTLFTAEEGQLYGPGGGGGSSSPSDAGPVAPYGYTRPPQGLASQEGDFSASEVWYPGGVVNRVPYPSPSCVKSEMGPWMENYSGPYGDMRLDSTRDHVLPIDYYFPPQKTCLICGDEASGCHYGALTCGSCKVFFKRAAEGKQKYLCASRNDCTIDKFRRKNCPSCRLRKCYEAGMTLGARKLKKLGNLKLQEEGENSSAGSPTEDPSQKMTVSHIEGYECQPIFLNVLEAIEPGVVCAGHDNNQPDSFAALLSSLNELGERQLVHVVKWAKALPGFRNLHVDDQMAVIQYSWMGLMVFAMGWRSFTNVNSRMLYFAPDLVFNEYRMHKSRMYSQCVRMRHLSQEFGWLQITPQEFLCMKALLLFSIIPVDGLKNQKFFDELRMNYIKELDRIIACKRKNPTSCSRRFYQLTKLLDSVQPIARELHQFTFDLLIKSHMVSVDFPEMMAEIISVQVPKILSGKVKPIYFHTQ

[1] = system: wild type AR (MDA 453 cells); settings: read-out: Kd for [3H]-DHT; MDA 453 cells (wild type AR), Scatchard analysis of specific binding
Description: For the saturation analysis, the difference between the total binding and the non-specific binding, is defined as specific binding.
Two replicates are used for each sample. After 4 hours at 37° C., cells are washed, harvested, and counted as described above. […] The K1 values are determined by application of the Cheng-Prusoff equation to the IC50 values, where:
[formula] After correcting for non-specific binding, IC50 values are determined.

For `CCC(=O)O[C@H]1CC[C@H]2[C@@H]3CCC4=CC(=O)CC[C@]4(C)[C@H]3CC[C@]12C` [TP, testosterone propionate], the “potency relative to free T” value (AR; TP versus free T, organ weight increase) was 10-30 fold and the “EC50 (increase in organ weight, VP and SV)” value (AR; immature castrated rats, dosed for 3 days) was roughly 0.03 mg.

“tritiated dihydrotestosterone [[^3H]-DHT]” gave a Kd [1] of 0.7 nM.
